Numbered stars: 1 amine (or outer) side, 2 acyl side, 3 side chain; on linkers, the order of the positions; unused ones are H or OH. Square brackets hold non-standard residues; d marks the D form. Peptide text beside a SMILES is read from it. dAla(N-(6-guanidinohexyl)) = C[C@@H](NCCCCCCNC(=N)N)C(=O)O; X1 = C[C@@H](C(=O)[*:2])N(CCCCCCN)[*:1]; X2 = C[C@H](C(=O)[*:2])N(CCCCCCN)[*:1]; 2Nal = N[C@@H](Cc1ccc2ccccc2c1)C(=O)O; X5 = C[C@H](C(=O)[*:2])N(CCCCCN)[*:1]; Gly(N-2-aminoethyl) = NCCNCC(=O)O; Nspe = C[C@H](NCC(=O)O)c1ccccc1

The subject of the first test is Leishmania amazonensis. Nature of the test: Antileishmanial activity against Leishmania amazonensis promastigotes assessed as inhibition of parasite growth at 10 uM incubated for 24 hrs relative to control. Format: functional.
Conditions: not given
On the set-up: scale not given: the % may be the effect or the level left.
As to `CCCCN(C(C)=O)C(C(=O)NCS(=O)(=O)c1ccc(C)cc1)c1ccccc1` (stereo unspecified), the Activity is given as 66.83%.

In a further test the test system is Leishmania amazonensis. The test can be described thus: Antileishmanial activity against Leishmania amazonensis promastigotes assessed as inhibition of parasite growth at 10 uM incubated for 48 hrs relative to control.
Conditions: not given
On the set-up: scale not given: the % may be the effect or the level left. The format is functional.
In the case of `CCCCN(C(C)=O)C(C(=O)NCS(=O)(=O)c1ccc(C)cc1)c1ccccc1` (stereo unspecified), the Activity was determined as 87.87%.

The next test concerns Plasmodium falciparum. The test can be described thus: Antiplasmodial activity against Plasmodium falciparum 3D7 assessed as inhibition of parasite growth. The format is functional, organism-based.
Conditions: not given
One may read the IC50 as the concentration that inhibits the measured activity by half. As for `Cc1cccc(CNC(=O)CN(Cc2ccc(C(=O)NO)cc2)C(=O)c2cc(C)cc(C)c2)c1`, the IC50 was 120 nM.

As to `Cc1cc(C)cc(C(=O)N(CC(=O)NC2CCCCC2)c2ccc(C(=O)NO)cc2)c1`, the IC50 stood at 77700 nM. `Cc1cc(C)cc(C(=O)N(CC(=O)NCc2cccnc2)Cc2ccc(C(=O)NO)cc2)c1`: the IC50 amounted to 70 nM. The same measure, in the same setting: the result for `CC(C)c1ccc(C(=O)N(CC(=O)NC2CCCCC2)c2ccc(C(=O)NO)cc2)cc1` reads 570 nM; that for `COc1ccc(CNC(=O)CN(Cc2ccc(C(=O)NO)cc2)C(=O)c2cc(C)cc(C)c2)cc1`, 33 nM; that for `CC(C)c1ccc(C(=O)N(CC(=O)NCc2ccccc2)Cc2ccc(C(=O)NO)cc2)cc1`, 5 nM.

Turning to `CN(C)c1ccc(C(=O)N(CC(=O)NCc2ccccc2)Cc2ccc(C(=O)NO)cc2)cc1`, the IC50 was 9 nM. Same read-out and setting: the result for `Cc1ccccc1C(=O)N(CC(=O)NC(C)(C)C)Cc1ccc(C(=O)NO)cc1` reads 110 nM; that for `Cc1cc(C)cc(C(=O)N(CC(=O)NCc2ccc(C(C)(C)C)cc2)Cc2ccc(C(=O)NO)cc2)c1`, 110 nM. In the case of `CN(C)c1ccc(C(=O)N(Cc2ccc(C(=O)NO)cc2)C(C)(C)C(=O)NC2CCCCC2)cc1`, the IC50 was 90 nM. As for `Cc1cc(C)cc(C(=O)N(CC(=O)NCc2ccc(Cl)cc2)Cc2ccc(C(=O)NO)cc2)c1`, the IC50 was 90 nM. The same measure, in the same setting: the result for `Cc1cc(C)cc(C(=O)N(CC(=O)NCc2ccc(F)cc2)Cc2ccc(C(=O)NO)cc2)c1` reads 80 nM; that for `COc1ccccc1C(=O)N(CC(=O)NC(C)(C)C)Cc1ccc(C(=O)NO)cc1`, 250 nM; that for `CN(C)c1ccc(C(=O)N(Cc2ccc(C(=O)NO)cc2)C(C(=O)NC2CCCCC2)c2ccccc2)cc1` (stereo unspecified), 390 nM. On the same count and under the same terms, for `CNC(=O)CN(Cc1ccc(C(=O)NO)cc1)C(=O)c1ccccc1C` the value was 70 nM. The same measure, in the same setting: the result for `CNC(=O)CN(Cc1ccc(C(=O)NO)cc1)C(=O)c1cc(C)cc(C)c1` reads 50 nM; that for `Cc1ccc(CNC(=O)CN(Cc2ccc(C(=O)NO)cc2)C(=O)c2cc(C)cc(C)c2)cc1`, 42 nM; that for `CC(C)(C)c1ccc(C(=O)N(CC(=O)NCc2ccccc2)Cc2ccc(C(=O)NO)cc2)cc1`, 8 nM. On to `Cc1cc(C)cc(C(=O)N(CC(=O)NCc2ccccc2)Cc2ccc(C(=O)NO)cc2)c1`, for which the IC50 came out at 37 nM. Same read-out and setting: the result for `Cc1cc(C)cc(CNC(=O)CN(Cc2ccc(C(=O)NO)cc2)C(=O)c2cc(C)cc(C)c2)c1` reads 70 nM.

In another test the test system is Leishmania mexicana. Nature of the test: Antileishmanial activity against Leishmania mexicana amastigotes. Format: functional. The conditions noted are these: read-out: ED50 (the source's name).
In the case of `C[C@@H](c1ccccc1)N(CC(N)=O)C(=O)CN(C(=O)CN(CCN)C(=O)CN(C(=O)CN(C(=O)CN(CCN)C(=O)CN(C(=O)CN(C(=O)CN(CCN)C(=O)CN(C(=O)CN(C(=O)CNCCN)[C@@H](C)c1ccccc1)[C@@H](C)c1ccccc1)[C@@H](C)c1ccccc1)[C@@H](C)c1ccccc1)[C@@H](C)c1ccccc1)[C@@H](C)c1ccccc1)[C@@H](C)c1ccccc1` (H-[Gly(N-2-aminoethyl)][Nspe][Nspe][Gly(N-2-aminoethyl)][Nspe][Nspe][Gly(N-2-aminoethyl)][Nspe][Nspe][Gly(N-2-aminoethyl)][Nspe][Nspe]-NH2), the EC50 is 17000 nM.

For the next test, the system named is Human immunodeficiency virus 1. Nature of the test: Antiviral activity against HIV-1. The format is functional, organism-based.
Conditions: not given
The compound `C[C@H]1C(=O)N[C@@H](CCCNC(=N)N)C(=O)N[C@@H](Cc2ccc3ccccc3c2)C(=O)NCC(=O)N[C@H](Cc2ccc(O)cc2)C(=O)N1CCCCCCN` (cyclo([2Nal]G[dY][X1]R)) yielded an EC50 of 979000 nM. On to `C[C@@H]1C(=O)N[C@@H](CCCNC(=N)N)C(=O)N[C@@H](Cc2ccc3ccccc3c2)C(=O)NCC(=O)N[C@H](Cc2ccc(O)cc2)C(=O)N1CCCCCCNC(=N)N` (cyclo([dY][dAla(N-(6-guanidinohexyl))]R[2Nal]G)), for which the EC50 was found to be 29000 nM.

The compound `C[C@@H]1C(=O)N[C@@H](CCCNC(=N)N)C(=O)N[C@@H](Cc2ccc3ccccc3c2)C(=O)NCC(=O)N[C@H](Cc2ccc(O)cc2)C(=O)N1CCCCCCN` (cyclo([2Nal]G[dY][X2]R)) came in with an EC50 of 53000 nM.

The next test concerns Leishmania mexicana. The test can be described thus: Antileishmanial activity against Leishmania mexicana promastigotes. The format is functional. The following applies: read-out: ED50 (the source's name).
For `C[C@@H](c1ccccc1)N(CC(N)=O)C(=O)CN(C(=O)CN(CCN)C(=O)CN(C(=O)CN(C(=O)CN(CCN)C(=O)CN(C(=O)CN(C(=O)CN(CCN)C(=O)CN(C(=O)CN(C(=O)CNCCN)[C@@H](C)c1ccccc1)[C@@H](C)c1ccccc1)[C@@H](C)c1ccccc1)[C@@H](C)c1ccccc1)[C@@H](C)c1ccccc1)[C@@H](C)c1ccccc1)[C@@H](C)c1ccccc1` (H-[Gly(N-2-aminoethyl)][Nspe][Nspe][Gly(N-2-aminoethyl)][Nspe][Nspe][Gly(N-2-aminoethyl)][Nspe][Nspe][Gly(N-2-aminoethyl)][Nspe][Nspe]-NH2), the EC50 worked out at 7000 nM.

A further test deals with C-X-C chemokine receptor type 4 (Homo sapiens, UniProt P61073). The test can be described thus: Inhibition of CXCR4 receptor (unknown origin).
Sequence of C-X-C chemokine receptor type 4 (P61073 whole entry): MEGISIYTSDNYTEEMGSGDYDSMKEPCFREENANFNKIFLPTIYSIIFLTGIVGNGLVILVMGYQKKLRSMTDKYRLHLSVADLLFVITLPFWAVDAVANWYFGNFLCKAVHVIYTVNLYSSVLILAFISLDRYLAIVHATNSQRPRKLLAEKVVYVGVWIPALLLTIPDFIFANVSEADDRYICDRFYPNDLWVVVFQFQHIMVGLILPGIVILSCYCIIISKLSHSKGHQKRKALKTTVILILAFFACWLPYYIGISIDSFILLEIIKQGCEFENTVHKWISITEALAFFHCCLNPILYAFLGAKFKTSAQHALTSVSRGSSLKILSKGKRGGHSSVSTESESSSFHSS
Conditions: not given
Regarding `C[C@H]1C(=O)N[C@@H](CCCNC(=N)N)C(=O)N[C@@H](Cc2ccc3ccccc3c2)C(=O)NCC(=O)N[C@H](Cc2ccc(O)cc2)C(=O)N1CCCCCCN` (cyclo([2Nal]G[dY][X1]R)), half-maximal inhibition (IC50) was put at 94000 nM. Same read-out and setting: the result for `C[C@@H]1C(=O)N[C@@H](CCCNC(=N)N)C(=O)N[C@@H](Cc2ccc3ccccc3c2)C(=O)NCC(=O)N[C@H](Cc2ccc(O)cc2)C(=O)N1CCCCCN` (cyclo([2Nal]G[dY][X5]R)) reads 1600 nM; that for `C[C@@H]1C(=O)N[C@@H](CCCNC(=N)N)C(=O)N[C@@H](Cc2ccc3ccccc3c2)C(=O)NCC(=O)N[C@H](Cc2ccc(O)cc2)C(=O)N1CCCCCCNC(=N)N` (cyclo([dY][dAla(N-(6-guanidinohexyl))]R[2Nal]G)), 40 nM; that for `C[C@@H]1C(=O)N[C@@H](CCCNC(=N)N)C(=O)N[C@@H](Cc2ccc3ccccc3c2)C(=O)NCC(=O)N[C@H](Cc2ccc(O)cc2)C(=O)N1CCCCCCN` (cyclo([2Nal]G[dY][X2]R)), 300 nM.

The values above are taken from ChEMBL document CHEMBL6074660, “Recent advances in peptoids as promising antimicrobial agents to target diverse microbial species” (Eur J Med Chem, 2024).
